In US4665076A, “Pharmacologically active piperidine derivatives and their use” (Rhone-Poulenc Sante, priority 1984, dated 1987):

Tested on: aconitine-induced ventricular arrhythmias
Assay: aconitine test in rats (antiarrhythmic activity)
Type: in vivo, male rats
Experimental: The principle of the technique rests on the time required for inducing ventricular arrhythmias with aconitine slowly perfused in rats. An antiarrhythmic substance delays the appearance of the arrhythmia, and this delay is proportional to the activity of the substance.
Groups of 5 male rats are used. Individual anaesthetisation is carried out (10% urethane: 1 g/kg/ip) to permit catheterisation of the vein of the penis. The electrocardiogram is recorded. At time T=O, the substance studied is injected as an aqueous solution, in the proportion of 2.5 ml of solution per kg, in the course of 30 seconds. At time T=60 seconds, or 30 seconds after completing the injection, aconitine is perfused at the rate of 20 μg per minute until […] extrasystoles appear. The perfusion time of the aconitine is noted. The results are expressed as an ED50, i.e. the dose of the product under test in mg/kg which increases by 50% the perfusion time of aconitine relative to control animals.

SMILES	ED50 (dose which increases by 50% the perfusion time of aconitine relative to control animals)	ED50 (Rattus norvegicus, iv, read-out: ED50 (dose which increases by 50% the perfusion time of aconitine relative to control animals))
O=C(CCC1CCNCC1)c1cccc2ccccc12 [Example 2, 1-(1-Naphthyl)-3-(4-piperidyl)-1-propanone]	3.8 mg/kg i.v.	
COc1cc2ccnc(C(O)CCC3CCNCC3)c2cc1OC (stereo not drawn) [Example 7, 1-(6,7-Dimethoxy-1-isoquinolyl)-3-(4-piperidyl)-1-propanol]	2.5 mg/kg i.v.	
C=C[C@H]1C[N@@]2CC[C@H]1C[C@@H]2[C@@H](O)c1ccnc2ccc(OC)cc12 [Quinidine, reference compound]	7.5 mg/kg i.v.	
OC(CCC1CCNCC1)c1cccc2ccccc12 (stereo not drawn) [Example 5, 1-(1-Naphthyl)-3-(4-piperidyl)-1-propanol]	1.42 mg/kg i.v.	
NC(CCC1CCNCC1)c1ccc2ccccc2c1 (stereo not drawn) [Example 9, 1-(2-Naphthyl)-3-(4-piperidyl)-1-propanamine]		< 0.3 mg/kg
OC(CCC1CCNCC1)c1nccc2ccccc12 (stereo not drawn) [Example 6, 1-(1-Isoquinolyl)-3-(4-piperidyl)-1-propanol]	2.7 mg/kg i.v.	
COc1cc2ccnc(C(=O)CCC3CCNCC3)c2cc1OC [Example 3, 1-(6,7-Dimethoxy-1-isoquinolyl)-3-(4-piperidyl)-1-propanone]	2.1 mg/kg i.v.	
CC(C)(C)c1nc(C(O)CCC2CCNCC2)c2ccccc2n1 (stereo not drawn) [Example 8, 1[2-(1,1-Dimethylethyl)-4-quinazolinyl]-3-(4-piperidyl)-1-propanol]	1 mg/kg i.v.	
O=C(CCC1CCNCC1)c1ccc2ccccc2c1 [Example 1, 1-(2-Naphthyl)-3-(4-piperidyl)-1-propanone]	4 mg/kg i.v.	
